According to publication PMC4858680, “A platinum-based hybrid drug design approach to circumvent acquired resistance to molecular targeted tyrosine kinase inhibitors” (Scientific Reports, 2016):

Legend:
EPHB6 = molecular target: T1, EPHB6 (Homo sapiens, UniProt O15197); settings: 10 μM
T1 sequence (O15197 32-1021): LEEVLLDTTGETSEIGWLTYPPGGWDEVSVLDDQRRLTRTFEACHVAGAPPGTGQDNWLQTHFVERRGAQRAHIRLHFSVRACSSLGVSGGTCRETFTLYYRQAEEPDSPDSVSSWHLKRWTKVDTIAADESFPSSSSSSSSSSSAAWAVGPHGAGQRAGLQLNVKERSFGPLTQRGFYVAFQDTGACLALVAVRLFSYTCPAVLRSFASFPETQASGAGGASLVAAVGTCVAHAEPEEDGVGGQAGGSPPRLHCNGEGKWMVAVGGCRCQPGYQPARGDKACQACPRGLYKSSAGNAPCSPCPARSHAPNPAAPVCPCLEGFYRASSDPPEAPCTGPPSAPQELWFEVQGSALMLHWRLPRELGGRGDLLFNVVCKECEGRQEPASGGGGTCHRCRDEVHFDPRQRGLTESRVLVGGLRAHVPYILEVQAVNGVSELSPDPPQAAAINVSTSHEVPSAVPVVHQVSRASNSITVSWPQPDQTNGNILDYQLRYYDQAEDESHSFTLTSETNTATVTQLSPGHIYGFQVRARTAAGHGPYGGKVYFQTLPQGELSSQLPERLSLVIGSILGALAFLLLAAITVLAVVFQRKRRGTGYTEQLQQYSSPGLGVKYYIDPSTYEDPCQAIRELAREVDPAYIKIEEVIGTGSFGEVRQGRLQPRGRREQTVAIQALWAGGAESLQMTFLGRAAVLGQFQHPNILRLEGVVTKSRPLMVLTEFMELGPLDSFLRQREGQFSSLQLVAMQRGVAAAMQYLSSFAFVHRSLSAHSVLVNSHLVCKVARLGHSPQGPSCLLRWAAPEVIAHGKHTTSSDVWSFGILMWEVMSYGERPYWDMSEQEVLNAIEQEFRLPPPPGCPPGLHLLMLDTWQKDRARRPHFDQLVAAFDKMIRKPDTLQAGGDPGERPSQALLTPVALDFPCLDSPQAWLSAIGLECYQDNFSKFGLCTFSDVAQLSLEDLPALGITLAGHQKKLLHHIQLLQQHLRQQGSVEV

FGFR3 = FGFR3 (Homo sapiens, UniProt P22607); settings: 10 μM
Sequence of FGFR3 (P22607 23-806): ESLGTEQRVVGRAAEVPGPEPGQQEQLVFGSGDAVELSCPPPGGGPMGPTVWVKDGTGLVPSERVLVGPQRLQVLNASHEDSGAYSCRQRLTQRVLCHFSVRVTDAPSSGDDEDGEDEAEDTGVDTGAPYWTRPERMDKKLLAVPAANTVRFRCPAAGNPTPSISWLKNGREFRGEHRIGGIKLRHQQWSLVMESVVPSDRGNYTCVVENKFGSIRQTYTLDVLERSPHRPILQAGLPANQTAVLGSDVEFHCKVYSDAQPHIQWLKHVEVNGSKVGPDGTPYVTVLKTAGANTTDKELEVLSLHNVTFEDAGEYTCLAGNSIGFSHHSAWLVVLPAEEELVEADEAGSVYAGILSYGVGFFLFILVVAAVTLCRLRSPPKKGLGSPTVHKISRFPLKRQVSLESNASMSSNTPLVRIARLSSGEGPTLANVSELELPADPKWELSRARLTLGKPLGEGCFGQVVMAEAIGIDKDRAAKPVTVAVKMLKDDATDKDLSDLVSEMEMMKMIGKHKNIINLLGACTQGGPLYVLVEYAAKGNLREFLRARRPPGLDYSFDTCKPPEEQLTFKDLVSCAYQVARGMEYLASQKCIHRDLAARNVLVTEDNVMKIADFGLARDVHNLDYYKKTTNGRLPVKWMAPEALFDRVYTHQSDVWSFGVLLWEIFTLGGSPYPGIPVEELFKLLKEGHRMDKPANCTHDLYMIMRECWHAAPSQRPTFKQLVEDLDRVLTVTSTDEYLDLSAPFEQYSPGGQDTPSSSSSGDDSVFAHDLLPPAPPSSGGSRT

ITK = molecular target: T2, ITK (Homo sapiens, UniProt Q08881); experiment: biochemical; settings: read-out: Percent control
T2 sequence (Q08881 1-620): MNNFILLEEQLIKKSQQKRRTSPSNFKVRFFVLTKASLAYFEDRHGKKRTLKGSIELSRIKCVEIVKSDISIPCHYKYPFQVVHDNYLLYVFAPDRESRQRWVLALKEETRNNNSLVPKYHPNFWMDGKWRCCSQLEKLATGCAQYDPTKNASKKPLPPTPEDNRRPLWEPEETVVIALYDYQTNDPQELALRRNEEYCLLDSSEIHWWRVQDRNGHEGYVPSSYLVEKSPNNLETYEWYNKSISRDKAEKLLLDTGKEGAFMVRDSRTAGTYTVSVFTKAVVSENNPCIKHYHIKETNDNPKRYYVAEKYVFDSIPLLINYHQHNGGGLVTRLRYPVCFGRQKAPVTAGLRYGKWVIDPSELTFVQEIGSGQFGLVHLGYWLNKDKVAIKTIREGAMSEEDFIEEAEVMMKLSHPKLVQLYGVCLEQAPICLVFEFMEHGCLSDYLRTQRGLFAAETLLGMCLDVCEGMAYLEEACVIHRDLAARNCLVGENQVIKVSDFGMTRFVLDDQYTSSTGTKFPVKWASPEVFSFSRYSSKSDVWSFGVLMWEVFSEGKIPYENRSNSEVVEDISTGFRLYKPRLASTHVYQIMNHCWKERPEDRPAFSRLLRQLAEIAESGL

DDR2 = molecular target: T3, DDR2 (Homo sapiens, UniProt Q16832); settings: 10 μM
T3 sequence (Q16832 22-855): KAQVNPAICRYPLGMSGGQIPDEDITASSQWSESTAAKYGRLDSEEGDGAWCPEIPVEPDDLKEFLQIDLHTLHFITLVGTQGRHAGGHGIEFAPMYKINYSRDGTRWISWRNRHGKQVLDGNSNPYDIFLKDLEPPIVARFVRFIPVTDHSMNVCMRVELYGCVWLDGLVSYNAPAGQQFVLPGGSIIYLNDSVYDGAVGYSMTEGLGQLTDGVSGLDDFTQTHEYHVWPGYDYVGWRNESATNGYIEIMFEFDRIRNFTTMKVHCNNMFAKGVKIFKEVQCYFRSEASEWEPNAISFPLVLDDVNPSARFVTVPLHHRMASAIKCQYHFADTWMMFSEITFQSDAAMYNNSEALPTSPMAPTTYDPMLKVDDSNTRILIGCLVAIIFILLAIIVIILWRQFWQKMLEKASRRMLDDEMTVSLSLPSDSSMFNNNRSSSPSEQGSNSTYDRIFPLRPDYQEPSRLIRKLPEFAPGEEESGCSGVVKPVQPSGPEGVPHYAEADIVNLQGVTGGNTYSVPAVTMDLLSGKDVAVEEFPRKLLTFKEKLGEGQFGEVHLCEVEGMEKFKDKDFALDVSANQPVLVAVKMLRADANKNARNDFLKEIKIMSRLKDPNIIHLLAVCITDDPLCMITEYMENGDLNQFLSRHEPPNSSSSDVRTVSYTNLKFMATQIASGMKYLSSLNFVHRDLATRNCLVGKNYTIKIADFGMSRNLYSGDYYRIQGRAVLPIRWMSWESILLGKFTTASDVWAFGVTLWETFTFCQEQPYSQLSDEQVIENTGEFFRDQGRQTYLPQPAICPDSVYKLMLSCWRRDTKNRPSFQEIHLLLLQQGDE

FER = molecular target: T4, FER (Homo sapiens, UniProt P16591); format: binding; settings: for Percent control: 10 μM
T4 construct: purchased DiscoveRx KINOMEscan

FRK = FRK (Homo sapiens, UniProt P42685); settings: 10 μM
Sequence of FRK (P42685 whole entry): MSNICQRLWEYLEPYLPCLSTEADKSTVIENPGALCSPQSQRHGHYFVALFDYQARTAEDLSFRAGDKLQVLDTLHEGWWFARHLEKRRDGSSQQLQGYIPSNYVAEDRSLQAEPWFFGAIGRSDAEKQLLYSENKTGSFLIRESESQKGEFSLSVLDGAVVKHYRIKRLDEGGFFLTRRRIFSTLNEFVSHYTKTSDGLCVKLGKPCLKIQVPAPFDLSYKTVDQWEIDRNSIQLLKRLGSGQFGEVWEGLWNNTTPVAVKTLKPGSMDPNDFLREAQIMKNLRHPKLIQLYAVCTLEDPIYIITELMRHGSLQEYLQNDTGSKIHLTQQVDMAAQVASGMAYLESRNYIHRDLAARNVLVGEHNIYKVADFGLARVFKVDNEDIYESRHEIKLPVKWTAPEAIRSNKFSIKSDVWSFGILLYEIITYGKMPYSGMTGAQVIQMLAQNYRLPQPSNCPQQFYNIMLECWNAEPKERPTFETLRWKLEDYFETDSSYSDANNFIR

MST1R = molecular target: T5, MST1R (Homo sapiens, UniProt Q04912); format: binding; settings: 10 μM
T5 construct: purchased DiscoveRx KINOMEscan
T5 sequence (Q04912 25-1400): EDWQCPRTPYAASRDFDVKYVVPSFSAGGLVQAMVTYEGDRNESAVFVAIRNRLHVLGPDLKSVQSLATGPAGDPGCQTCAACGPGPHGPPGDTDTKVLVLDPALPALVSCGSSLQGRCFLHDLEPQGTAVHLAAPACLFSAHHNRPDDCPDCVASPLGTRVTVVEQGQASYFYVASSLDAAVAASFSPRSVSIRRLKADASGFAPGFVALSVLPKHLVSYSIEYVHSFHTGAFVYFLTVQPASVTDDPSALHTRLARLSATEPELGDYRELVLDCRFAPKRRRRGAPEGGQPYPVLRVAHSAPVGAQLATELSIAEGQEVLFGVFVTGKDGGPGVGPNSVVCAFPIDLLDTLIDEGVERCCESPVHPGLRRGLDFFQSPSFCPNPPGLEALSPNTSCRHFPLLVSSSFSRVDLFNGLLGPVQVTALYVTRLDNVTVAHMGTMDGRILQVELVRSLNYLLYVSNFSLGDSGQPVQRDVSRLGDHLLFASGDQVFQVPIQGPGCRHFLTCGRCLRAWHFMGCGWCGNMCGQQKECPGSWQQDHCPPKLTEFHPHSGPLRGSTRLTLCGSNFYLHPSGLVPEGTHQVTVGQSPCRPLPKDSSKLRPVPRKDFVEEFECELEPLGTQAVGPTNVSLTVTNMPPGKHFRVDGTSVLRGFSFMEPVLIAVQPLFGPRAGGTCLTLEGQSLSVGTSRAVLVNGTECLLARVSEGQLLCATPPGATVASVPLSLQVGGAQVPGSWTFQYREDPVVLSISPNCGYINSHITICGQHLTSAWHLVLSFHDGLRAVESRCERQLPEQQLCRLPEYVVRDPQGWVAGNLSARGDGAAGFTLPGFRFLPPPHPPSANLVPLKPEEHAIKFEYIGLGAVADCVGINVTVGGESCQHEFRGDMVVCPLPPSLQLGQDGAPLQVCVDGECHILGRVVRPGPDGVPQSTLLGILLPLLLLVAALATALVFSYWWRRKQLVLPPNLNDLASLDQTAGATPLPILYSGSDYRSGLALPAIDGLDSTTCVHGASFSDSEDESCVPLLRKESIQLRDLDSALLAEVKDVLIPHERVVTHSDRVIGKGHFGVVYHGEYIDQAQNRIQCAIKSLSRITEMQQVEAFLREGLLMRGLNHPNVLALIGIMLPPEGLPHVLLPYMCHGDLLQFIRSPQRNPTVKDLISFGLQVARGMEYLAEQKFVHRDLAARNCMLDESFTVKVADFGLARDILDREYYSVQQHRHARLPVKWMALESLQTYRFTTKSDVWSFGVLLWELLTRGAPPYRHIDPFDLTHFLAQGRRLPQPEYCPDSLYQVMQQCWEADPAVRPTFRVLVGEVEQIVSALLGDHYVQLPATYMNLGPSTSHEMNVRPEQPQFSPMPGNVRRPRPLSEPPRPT

FLT4 = FLT4 (Homo sapiens, UniProt P35916); settings: 10 μM
Sequence of FLT4 (P35916 25-1363): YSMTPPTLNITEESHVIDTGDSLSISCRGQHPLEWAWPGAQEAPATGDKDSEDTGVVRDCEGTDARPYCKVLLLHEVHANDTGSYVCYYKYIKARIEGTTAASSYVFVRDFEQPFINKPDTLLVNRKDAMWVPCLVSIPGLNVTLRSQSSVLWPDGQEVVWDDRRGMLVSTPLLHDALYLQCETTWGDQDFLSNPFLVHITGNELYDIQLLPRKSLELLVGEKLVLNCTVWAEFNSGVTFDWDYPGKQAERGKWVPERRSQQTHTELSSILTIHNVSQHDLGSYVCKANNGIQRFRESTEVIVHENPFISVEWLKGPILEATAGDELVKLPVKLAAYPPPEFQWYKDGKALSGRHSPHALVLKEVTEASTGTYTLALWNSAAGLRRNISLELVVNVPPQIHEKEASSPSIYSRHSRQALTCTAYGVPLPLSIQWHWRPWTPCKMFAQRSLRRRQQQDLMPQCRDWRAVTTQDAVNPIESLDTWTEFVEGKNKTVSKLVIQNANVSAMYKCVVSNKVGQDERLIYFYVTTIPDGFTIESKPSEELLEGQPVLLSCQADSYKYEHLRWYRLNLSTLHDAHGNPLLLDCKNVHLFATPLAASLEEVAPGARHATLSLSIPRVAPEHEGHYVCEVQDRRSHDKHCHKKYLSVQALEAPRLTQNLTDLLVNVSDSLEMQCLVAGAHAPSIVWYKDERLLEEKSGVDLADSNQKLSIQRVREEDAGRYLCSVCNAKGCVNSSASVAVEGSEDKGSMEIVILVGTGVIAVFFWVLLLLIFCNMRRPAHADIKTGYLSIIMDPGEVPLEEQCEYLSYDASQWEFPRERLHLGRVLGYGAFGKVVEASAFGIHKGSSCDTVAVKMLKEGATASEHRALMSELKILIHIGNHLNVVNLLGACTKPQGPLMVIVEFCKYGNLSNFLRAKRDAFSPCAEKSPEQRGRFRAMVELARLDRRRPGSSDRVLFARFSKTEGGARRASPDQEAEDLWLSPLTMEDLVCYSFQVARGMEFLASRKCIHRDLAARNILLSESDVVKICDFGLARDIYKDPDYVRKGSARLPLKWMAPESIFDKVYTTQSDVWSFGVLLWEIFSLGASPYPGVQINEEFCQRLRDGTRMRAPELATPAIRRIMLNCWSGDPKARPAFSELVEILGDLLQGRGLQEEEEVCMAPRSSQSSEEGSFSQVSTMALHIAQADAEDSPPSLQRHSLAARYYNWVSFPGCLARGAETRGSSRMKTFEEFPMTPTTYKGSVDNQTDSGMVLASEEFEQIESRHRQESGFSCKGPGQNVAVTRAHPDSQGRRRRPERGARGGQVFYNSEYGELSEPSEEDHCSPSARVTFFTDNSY

KIT(A829P) = KIT(A829P) (Homo sapiens, UniProt P10721, A829P); experiment: biochemical; settings: read-out: Percent control
YES = molecular target: T6, YES (Homo sapiens, UniProt P07947); format: binding; settings: for Percent control: 10 μM
T6 construct: purchased DiscoveRx Corporation (KINOMEscan service)

DDR1 = molecular target: T7, DDR1 (Homo sapiens, UniProt Q08345); format: binding; settings: for Percent control: 10 μM
T7 construct: purchased DiscoveRx KINOMEscan
T7 sequence (Q08345 19-913): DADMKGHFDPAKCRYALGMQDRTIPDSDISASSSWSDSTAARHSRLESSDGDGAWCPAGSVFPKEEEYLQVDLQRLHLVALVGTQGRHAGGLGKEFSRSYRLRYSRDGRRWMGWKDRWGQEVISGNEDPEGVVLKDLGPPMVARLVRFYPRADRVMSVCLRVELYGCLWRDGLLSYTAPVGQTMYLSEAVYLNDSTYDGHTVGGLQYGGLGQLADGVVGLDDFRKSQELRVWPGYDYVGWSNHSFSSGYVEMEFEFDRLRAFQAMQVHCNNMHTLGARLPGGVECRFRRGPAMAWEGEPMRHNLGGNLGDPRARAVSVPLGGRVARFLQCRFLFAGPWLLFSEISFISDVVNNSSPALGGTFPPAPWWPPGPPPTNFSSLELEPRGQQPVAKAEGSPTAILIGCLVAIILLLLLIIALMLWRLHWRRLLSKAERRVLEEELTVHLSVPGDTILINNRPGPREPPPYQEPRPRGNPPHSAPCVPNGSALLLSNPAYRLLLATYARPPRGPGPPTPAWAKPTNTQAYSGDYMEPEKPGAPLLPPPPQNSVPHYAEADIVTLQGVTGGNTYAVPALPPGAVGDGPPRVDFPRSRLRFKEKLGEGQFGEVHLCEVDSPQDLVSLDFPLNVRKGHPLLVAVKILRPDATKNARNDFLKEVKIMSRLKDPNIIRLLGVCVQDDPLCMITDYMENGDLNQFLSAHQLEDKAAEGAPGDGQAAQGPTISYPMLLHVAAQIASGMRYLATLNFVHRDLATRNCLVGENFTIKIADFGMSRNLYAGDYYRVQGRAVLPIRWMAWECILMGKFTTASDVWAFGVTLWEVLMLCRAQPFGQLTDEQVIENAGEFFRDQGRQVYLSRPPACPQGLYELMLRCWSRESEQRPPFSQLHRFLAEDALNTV

Structure (SMILES) | Percent control (EPHB6) | Percent control (FGFR3) | remaining activity at 10 µM (ITK) | Percent control (DDR2) | Percent control (FER) | Percent control (FRK) | Percent control (MST1R) | Percent control (FLT4) | remaining activity at 10 µM (KIT(A829P)) | Percent control (YES) | Percent control (DDR1) | remaining binding at 10 µM (YES; read-out: Percent control) | remaining binding at 10 µM (DDR1; read-out: Percent control) | remaining binding at 10 µM (FER; read-out: Percent control)
Cc1ccc(NC(=O)c2ccc(CN3CCN(C)CC3)cc2)cc1Nc1nccc(-c2cccnc2)n1 [Imatinib, reference compound] | 100% | 100% | 100% | 0.1% | 100% | 13.0% | 100% | 100% | 0.1% |  |  |  |  | 
Cc1ccc(NC(=O)c2ccc(CN3CCN(C)CC3)cc2)cc1Nc1nccc(-c2cccnc2)[n+]1[Pt-2]1([Cl])[NH2+]C2CCCCC2[NH2+]1 (centres unmarked) [1b, oxaliplatin-imatinib] | 92% | 94% |  | 10% | 89% | 58% | 100% | 99% |  | 100% |  |  |  | 
COc1cc2c(Nc3ccc(Br)cc3F)[n+]([Pt-2]3([Cl])[NH2+]C4CCCCC4[NH2+]3)cnc2cc1OCC1CCN(C)CC1 (centres unmarked) [3b, oxaliplatin-vandetanib] | 2.5% |  |  | 0.21% | 90% | 56% | 100% | 14% |  | 23% | 0.3% |  |  | 
C#Cc1cccc(Nc2c3cc(OCCOC)c(OCCOC)cc3nc[n+]2[Pt@SP2-2]([NH3+])([NH3+])[Cl])c1 [2a, cisplatin-erlotinib] | 76% | 89% |  | 100% | 95% | 75% | 100% | 90% |  | 100% | 74% |  |  | 
COc1cc2c(Nc3ccc(Br)cc3F)ncnc2cc1OCC1CCN(C)CC1 [Vandetanib, reference compound] |  |  | 100% |  |  |  |  |  | 0.3% |  |  | 1.2% | 0.1% | 100%
C#Cc1cccc(Nc2ncnc3cc(OCCOC)c(OCCOC)cc23)c1 [Erlotinib] |  |  | 100% |  |  |  |  |  | 100% |  |  |  |  | 
